Measured values as given in US20240279232A1, “USE OF SUBSTITUTED 5-(4-METHYL-6-PHENYL-4H-BENZO[F]IMIDAZO[1,5-A][1,4] DIAZEPIN-3-YL)-1,2,4-O[…] THE TREATMENT OF INFLAMMATORY CONDITIONS” (priority 2021, published 2024).

Assays:
[1] = tested on: RAW macrophages; experiment: Cell viability (CellTiter-Glo), RAW macrophages; assay type: cell-based, mouse; conditions: CellTiter-Glo
[2] = tested on: RAW macrophages; experiment: NO production (Griess assay), LPS/IFNγ-activated RAW264.7 macrophages; assay type: cell-based, mouse; conditions: for Inhibition of NO production (%) RAW macrophages 10 μM: 24 hours, 1 μM GABA, LPS/IFNγ
[3] = tested on: HEK293; experiment: Viability assay (CellTiter-Glo), HEK293; assay type: cell-based, human; conditions: for Cell viability (%) HEK293 120 μM: CellTiter-Glo
Experimental: (§1) The screen identified several compounds that reduced NO in activated microglia and macrophages. The tested compounds included achiral and chiral imidazodiazepines and benzodiazepines. In general, microglia were more sensitive to compound treatment with more pronounced reduction of NO than macrophages. […] Cell viability assays with HEK293 (kidney) and HepG2 (liver) cells were conducted in a concentration dependent manner. A limited number of compounds, such as GL-III-63, GL-III-76A, and GL-III-77, were toxic at 120 μM.
(§2) Viability assay. Human liver hepatocellular carcinoma (HEPG2) and human embryonic kidney 293T (HEK293T) cell lines were purchased (ATCC) and cultured in 75 cm^2 flasks (CellStar). Cells were grown in DMEM/High Glucose (Hyclone, #SH3024301) media to which non-essential amino acids (Hyclone, #SH30238.01), 10 mM HEPES (Hyclone, #SH302237.01), 5×10^6 units of penicillin and streptomycin (Hyclone, #SV30010), and 10% of heat inactivated fetal bovine serum (Gibco, #10082147) were added. Cells were harvested using 0.05% Trypsin (Hyclone, #SH3023601), washed with PBS, and dispensed into sterile white, optical bottom 384-well plates (NUNC, #142762). After three hours, small molecule DMSO solutions were transferred with a Tecan Freedom EVO liquid handling system equipped with a 100 nL pin tool (V&P Scientific). The controls were 3-dibutylamino-1-(4-hexyl-phenyl)-propan-1-one (25 mM in DMSO, positive control) and DMSO (negative control). The cells were incubated for 48 hours followed by the addition of CellTiter-Glo™, a luminescence-based cell viability assay (Promega, Madison, WI). All luminescence readings were performed on a Tecan Infinite M1000 plate reader. The assay was carried out in quadruplet with two independent runs. The data were analyzed by nonlinear regression.

[4] = tested on: HEPG2; experiment: Viability assay (CellTiter-Glo), HEPG2; assay type: cell-based, human; conditions: for Cell viability (%) HEPG2 120 μM: CellTiter-Glo
Experimental: as §1, §2

[5] = tested on: Mouse microglia; experiment: NO production (Griess assay), LPS/IFNγ-activated mouse microglia; assay type: cell-based; conditions: for inhibition at 10 µM / inhibition at 50 µM: Mus musculus, Microglia, 24 h
Experimental: (§3) Next, a library of GABAAR ligands was investigated to identify compounds that reduce the production of NO as a marker of anti-inflammatory activity. […] NO was quantified with a Greiss assay. Cell viability was determined with CellTiter-Glo.
Cell culture. A) HMC3 Microglia (CRL-3304) were maintained in treated cell culture flasks (Nunc, 156472) with EMEM (Corning, 10010CV) supplemented with 10% heat-inactivated FBS (Corning, 35011CV) and 100 U/mL penicillin and 100 μg/mL streptomycin (Hyclone, SV30010). Cultures were maintained at 37° C. and 5% CO2. When cells reached a density of 7×10^4 cells/mL, cultures were passaged with 0.25% Trypsin (Corning, 25-053-CI) and resuspended to a density no lower than 10,000 cells/mL. B) Human and mouse microglia cell lines were a gift from Dr. David Alvarez-Carbonell at Case Western Reserve University (Cleveland, OH). Microglia were cultured in cell culture treated flasks (Nunc, 156472) with DME/F12 media (Hyclone, SH30023.01) supplemented with 10% heat-inactivated FBS (Corning, 35011CV), 100 U/mL penicillin/100 μg/mL streptomycin (Hyclone, SV30010), and Normocin (Invivogen, ant-nr). Cultures were maintained at 37° C. and 5% CO2. […] Cultures were maintained at 37° C. and 5% CO2. Cells were passaged when they reached a density of approximately 3×10^6 cells/mL using cell scrapers (VWR, 10062-906) to lift cells from flask surface and resuspended at densities of approximately 500,000 cells/mL.
(§4) Nitric oxide production (Griess assay) and viability assay (CellTiter-Glo). 80 μL of mouse microglia culture (1×10^6 cells/mL) was plated into sterile 384 well plates representing non-activated wells. The remaining culture was activated with 50 ng/ml LPS (Invivogen, NC9836) and 150 U/mL IFNγ (R&D Systems, 485MI100) and distributed into the 384 well plates. […] Assay plates were incubated for approximately 24 hours (unless otherwise noted) at 37° C., centrifuged, and 40 μL of supernatant transferred to a new plate for analysis using the Griess Assay (Promega, Madison, WI). Absorbance at 530 nm was measured using a TECAN Infinite M1000 plate reader. The remaining 40 μL containing cells was analyzed for toxicity by the CellTiter-Glo Assay (Promega, Madison, WI). Luminescence was read using a TECAN Infinite M1000 plate reader.

[6] = tested on: Mouse microglia; experiment: Cell viability (CellTiter-Glo), mouse microglia; assay type: cell-based; conditions: 50 μM, CellTiter-Glo
Experimental: as §3, §4

[7] = target: T1, MOR (μ opioid receptor) (Homo sapiens, UniProt P35372); experiment: MOR radioligand binding ([3H]-DAMGO, HEK293 cell homogenates); conditions: for inhibition at 10 µM: Percent inhibition at 10,000 nM, [3H]-DAMGO
T1 construct: expressed in transfected cells; host or cells: HEK293
T1 sequence (P35372 whole entry, species assumed): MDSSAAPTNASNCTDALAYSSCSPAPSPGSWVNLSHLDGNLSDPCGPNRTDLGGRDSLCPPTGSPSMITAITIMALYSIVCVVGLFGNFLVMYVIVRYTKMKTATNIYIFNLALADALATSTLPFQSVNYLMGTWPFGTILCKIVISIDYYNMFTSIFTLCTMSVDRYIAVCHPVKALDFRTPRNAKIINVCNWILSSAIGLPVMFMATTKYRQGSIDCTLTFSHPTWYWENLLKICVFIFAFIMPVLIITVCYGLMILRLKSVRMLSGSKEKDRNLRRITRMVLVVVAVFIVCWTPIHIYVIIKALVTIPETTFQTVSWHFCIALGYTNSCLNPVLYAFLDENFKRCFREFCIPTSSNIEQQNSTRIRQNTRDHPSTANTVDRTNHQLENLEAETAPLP

[8] = target: T2, KOR (κ opioid receptor) (Homo sapiens, UniProt P41145); experiment: KOR radioligand binding ([3H]-U69593, HEK293 cell homogenates); conditions: for inhibition at 10 µM: Percent inhibition at 10,000 nM, [3H]-U69593
T2 construct: expressed in transfected cells; host or cells: HEK293 (stably transfected)
T2 sequence (P41145 whole entry): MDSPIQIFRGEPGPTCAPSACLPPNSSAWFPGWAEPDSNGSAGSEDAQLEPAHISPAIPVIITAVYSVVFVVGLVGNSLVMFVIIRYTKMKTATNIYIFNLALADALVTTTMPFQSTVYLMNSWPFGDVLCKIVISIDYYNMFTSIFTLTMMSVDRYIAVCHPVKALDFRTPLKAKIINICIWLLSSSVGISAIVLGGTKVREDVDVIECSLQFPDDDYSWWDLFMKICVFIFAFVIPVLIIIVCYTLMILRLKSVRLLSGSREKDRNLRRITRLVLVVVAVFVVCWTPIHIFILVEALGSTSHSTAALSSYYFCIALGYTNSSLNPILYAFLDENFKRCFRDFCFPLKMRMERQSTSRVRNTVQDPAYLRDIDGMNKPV

[9] = target: T3, DOR (δ opioid receptor) (Homo sapiens, UniProt P41143); experiment: DOR radioligand binding ([3H]-DADLE, HEK293 cell homogenates); conditions: Percent inhibition at 10,000 nM; [3H]-DADLE
T3 construct: expressed in transfected cells; host or cells: HEK293
T3 sequence (P41143 whole entry): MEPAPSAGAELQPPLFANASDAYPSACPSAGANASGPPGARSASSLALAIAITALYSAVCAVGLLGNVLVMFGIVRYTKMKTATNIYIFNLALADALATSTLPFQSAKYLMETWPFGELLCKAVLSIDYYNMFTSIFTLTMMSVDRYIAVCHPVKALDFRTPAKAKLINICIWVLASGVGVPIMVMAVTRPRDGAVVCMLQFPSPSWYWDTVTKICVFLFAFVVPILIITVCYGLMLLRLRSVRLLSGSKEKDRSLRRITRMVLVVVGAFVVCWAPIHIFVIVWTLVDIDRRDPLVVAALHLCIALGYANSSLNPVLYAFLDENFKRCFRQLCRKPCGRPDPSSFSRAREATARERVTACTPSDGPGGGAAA

[10] = tested on: BZR (benzodiazepine site of GABAAR); experiment: GABAAR/BZR binding, rat brain homogenate with 3H-flunitrazepam; conditions: rat brain homogenate, 3H-flunitrazepam; for BZR %: Percent inhibition at 10,000 nM
How it was run: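 Rat brain homogenate incubated with 3H-flunitrazepam near its Kd, typically 90 min at room temperature in the dark; nonspecific binding defined with 10 μM reference compound. Filtration on PEI-soaked mats, scintillation counting; compounds screened at 10,000 nM, those above 50% displacement taken to concentration–response for Ki by nonlinear regression (n=6).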

Structure (SMILES) | Cell viability (%) RAW macrophages 50 μM [1] [%] | Inhibition of NO production (%) RAW macrophages 10 μM [2] [%] | Cell viability (%) HEK293 120 μM [3] [%] | Cell viability (%) HEPG2 120 μM [4] [%] | Inhibition of NO production (%) Mouse microglia 10 μM ([5]; 24 hours, 1 μM GABA, LPS/IFNγ) [%] | Cell viability (%) Mouse microglia 50 μM [6] [%] | other results
CC1N=C(c2ccccc2F)c2cc(Br)ccc2-n2cnc(-c3cnco3)c21 (racemic) [GL-III-76A] | 97 ± 4 | 6 ± 3 | 0 ± 3 | 0 ± 2 | 58 ± 9 | 100 ± 9 | toxicity at 120 μM (in words) ([3]; HEK293, 120 μM): toxic; toxicity at 120 μM (in words) ([4]; HepG2, 120 μM): toxic
C#Cc1ccc2c(c1)C(c1ccccc1)=NCc1c(C(=O)OCCCO)ncn1-2 [GL-I-48] | 100 ± 12 | 4 ± 2 | 65 ± 8 | 100 ± 4 | 0 ± 4 | 78 ± 5 | –
O=C(O)c1ncn2c1CN=C(c1ccccc1)c1cc(Br)ccc1-2 [GL-I-50] | 100 ± 9 | 0 ± 1 | 97 ± 12 | 100 ± 2 | 33 ± 6 | 88 ± 9 | –
C#Cc1ccc2c(c1)C(c1ccccc1F)=N[C@H](C)C(=O)N2 [GL-I-62] | 100 ± 3 | 3 ± 2 | 79 ± 7 | 89 ± 10 | 13 ± 7 | 92 ± 7 | –
C#Cc1ccc2c(c1)C(c1ccccc1F)=N[C@@H](C)C(=O)N2 [GL-I-64] | 100 ± 5 | 3 ± 3 | 77 ± 13 | 100 ± 9 | 24 ± 3 | 81 ± 5 | –
C#Cc1ccc2c(c1)C(c1ccccc1F)=N[C@@H](C)c1c(-c3nc(C(C)C)no3)ncn1-2 [GL-I-81, (S)-5-(8-Ethynyl-6-(2-fluorophenyl)-4-methyl-4H-benzo[f]imidazo[1,5-a][1,4]diazepin-3-yl)-3-isopropyl-1,2,4-oxadiazole] | 91 ± 7 | – | – | – | – | 94 ± 10 | Ki [7]: 2.92 µM; inhibition at 10 µM [7]: 64%; inhibition at 10 µM ([2]; Mus musculus, Macrophage, 24 h): 0%; inhibition at 50 µM ([2]; Mus musculus, Macrophage, 24 h): 6 ± 2%; Ki [8]: 0.127 µM; inhibition at 10 µM [8]: 93%; inhibition at 10 µM [5]: 64 ± 9%; inhibition at 50 µM [5]: 87 ± 2%; inhibition at 10 µM [9]: 25%; BZR % [10]: 83%; Ki [10]: 0.839 µM
CC1N=C(c2ccccn2)c2cc(Br)ccc2NC1=O (stereo not drawn) [GL-II-05] | 100 ± 11 | 0 ± 1 | 94 ± 3 | 92 ± 5 | 12 ± 5 | 88 ± 8 | –
CCOC(=O)c1ncn2c1[C@@H](C)N=C(c1ccccn1)c1cc(C#C[Si](C)(C)C)ccc1-2 [GL-II-18] | 99 ± 2 | 11 ± 4 | 53 ± 10 | 100 ± 8 | 49 ± 10 | 89 ± 9 | –
C#Cc1ccc2c(c1)C(c1ccccn1)=N[C@H](C)c1c(C(=O)OC)ncn1-2 [GL-II-32] | 100 ± 4 | – | 80 ± 6 | – | – | 95 ± 8 | inhibition at 10 µM [7]: 32%; inhibition at 10 µM ([2]; Mus musculus, Macrophage, 24 h): 6 ± 3%; inhibition at 10 µM [8]: 35%; inhibition at 10 µM [5]: 7 ± 2%; inhibition at 10 µM [9]: 0%; BZR % [10]: 63%; Ki [10]: 1.43 µM
C#Cc1ccc2c(c1)C(c1ccccn1)=NC(C)c1c(-c3nc(C)no3)ncn1-2 (stereo not drawn) [GL-II-33] | 100 ± 7 | – | – | – | – | 100 ± 4 | Inhibition of NO production (%) Mouse microglia 50 μM ([5]; 50 μM, 24 hours, 1 μM GABA, LPS/IFNγ): 0 ± 3%; NO production of activated microglia (in words) ([5]; dexamethasone 100 nM, GABA 1 μM, MP-IV-010 50 μM, GL-II-33 in the library screen): did not reduce NO production
C#Cc1ccc2c(c1)C(c1ccccn1)=N[C@H](C)c1c(-c3nc(CC)no3)ncn1-2 [GL-II-54] | 100 ± 8 | – | – | – | – | 95 ± 3 | inhibition at 10 µM [7]: 0%; Ki [8]: 0.504 µM; inhibition at 10 µM [8]: 80%; inhibition at 50 µM [5]: 0%; inhibition at 10 µM [9]: 0%; BZR % [10]: 66%; Ki [10]: 2.04 µM
C#Cc1ccc2c(c1)C(c1ccccn1)=NC(C)C(=O)N2C (stereo not drawn) [GL-II-61] | 100 ± 8 | 10 ± 4 | 83 ± 10 | 82 ± 3 | 28 ± 2 | 91 ± 8 | –
C#Cc1ccc2c(c1)C(c1ccccc1F)=NCc1c(C(=O)O)ncn1-2 [GL-II-79] | 100 ± 3 | 0 ± 3 | 91 ± 13 | 100 ± 7 | 44 ± 6 | 84 ± 5 | –
C#Cc1ccc2c(c1)C(c1ccccn1)=NCc1c(C(=O)O)ncn1-2 [GL-III-13] | 100 ± 9 | 0 ± 2 | 74 ± 5 | 100 ± 10 | – | 92 ± 9 | –
C#Cc1ccc2c(c1)C(c1ccccn1)=NCC(=O)N2 [GL-III-58] | 100 ± 14 | – | 89 ± 2 | 100 ± 5 | 48 ± 4 | 83 ± 4 | –
